Reference: ChEMBL document CHEMBL4699527, “Chemical Constituents from the Aerial Parts of Elsholtzia ciliata and Their Protective Activities on Glutamate-Induced HT22 Cell Death” (J Nat Prod, 2020)

Tested on: HT-22
Assay: Neuroprotective activity against glutamate-induced cell death in mouse HT-22 cells assessed as increase in cell viability after 24 hrs by EZ-Cytox assay
Format: functional, cell-based
Settings: HT-22, 24 h

Row | Structure (SMILES) | EC50
1 | CC(=O)/C=C/c1ccc(O)c(O)c1 | 1.5 µM
2 | O=C(/C=C/c1ccc(O)cc1)c1ccc(O[C@@H]2O[C@H](CO)[C@@H](O)[C@H](O)[C@H]2O)cc1O | 72 µM
3 | O=C(O)/C=C\c1ccc(O)cc1 | > 100 µM
4 | COc1ccc(-c2cc(=O)c3c(O)cc(O[C@@H]4O[C@H](CO[C@@H]5O[C@@H](C)[C@H](O)[C@@H](O)[C@H]5O)[C@@H](O)[C@H](O)[C@H]4O)cc3o2)cc1 [ACACIIN] | 69.3 µM
5 | O=c1cc(-c2ccc(O)cc2)oc2cc(O)cc(O)c12 [APIGENIN] | > 100 µM
6 | COc1ccc(-c2cc(=O)c3c(O)cc(O[C@@H]4O[C@H](CO[C@@H]5O[C@@H](C)[C@H](OC(C)=O)[C@@H](O)[C@H]5O)[C@@H](O)[C@H](O)[C@H]4O)cc3o2)cc1 | > 100 µM
7 | CC(=O)N[C@@H](CS)C(=O)O [ACETYLCYSTEINE] | 700 µM
8 | COc1ccc(/C=C/C(=O)c2ccc(O[C@@H]3O[C@H](CO)[C@@H](O)[C@H](O)[C@H]3O)cc2O)cc1O | 63.4 µM
9 | O=C(/C=C/c1ccc(O)c(O)c1)O[C@H](Cc1ccc(O)c(O)c1)C(=O)O [ROSMARINIC ACID] | 86 µM
10 | O=c1cc(-c2ccc(O)cc2)oc2cc(O[C@@H]3O[C@H](CO)[C@@H](O)[C@H](O)[C@H]3O)cc(O)c12 [APIGETRIN] | > 100 µM
11 | COc1ccc(-c2cc(=O)c3c(O)cc(O[C@@H]4O[C@H](CO[C@@H]5O[C@@H](C)[C@H](O)[C@@H](O)[C@H]5O)[C@@H](O)[C@H](O)[C@H]4O[C@@H]4O[C@H](COC(C)=O)[C@@H](O)[C@H](O)[C@H]4O)cc3o2)cc1 | > 100 µM
12 | O=C(O)/C=C/C=C/c1ccc(O)c(O[C@@H]2O[C@H](COC(=O)/C=C/c3ccc(O)c(O)c3)[C@@H](O)[C@H](O)[C@H]2O)c1 | 56.2 µM
13 | O=C1C[C@@H](c2ccc(O)c(O)c2)Oc2c1ccc(O)c2O | 6.2 µM
14 | O=C(O)c1ccc(O)c(O)c1 [PROTOCATECHUIC ACID] | > 100 µM
15 | COc1ccc(-c2cc(=O)c3c(O)cc(O)cc3o2)cc1O [DIOSMETIN] | 59.7 µM
16 | COc1cc(C(=O)O)ccc1O [VANILLIC ACID] | 27.8 µM
17 | COc1ccc(-c2cc(=O)c3c(O)cc(O[C@@H]4O[C@H](CO[C@@H]5O[C@@H](C)[C@H](OC(C)=O)[C@@H](O)[C@H]5O)[C@@H](O)[C@H](O)[C@H]4O[C@@H]4O[C@H](CO)[C@@H](O)[C@H](O)[C@H]4O)cc3o2)cc1 | 69.7 µM
18 | O=C(/C=C/c1ccc(O)c(O)c1)O[C@H]1CC[C@@H](O)[C@H]1O | > 100 µM
19 | COc1ccc(-c2cc(=O)c3c(O)cc(O[C@@H]4O[C@H](CO[C@@H]5O[C@@H](C)[C@H](OC(C)=O)[C@@H](O)[C@H]5O)[C@@H](O)[C@H](O)[C@H]4O[C@@H]4O[C@H](COC(C)=O)[C@@H](O)[C@H](OC(C)=O)[C@H]4O)cc3o2)cc1 | > 100 µM

Row | Structure (SMILES) | EC50
20 | O=C(/C=C/c1ccc(O)c(O)c1)O[C@@H]1C[C@](O)(C(=O)O)C[C@@H](OC(=O)/C=C/c2ccc(O)c(O)c2)[C@H]1O | > 100 µM
21 | COc1ccc(/C=C/C(=O)c2ccc(O)cc2O)cc1O | 35.2 µM
22 | O=C(O)c1ccc(O)cc1 [PARABEN] | > 100 µM
23 | COc1ccc(/C=C/C(=O)c2ccc(O[C@@H]3O[C@H](CO)[C@@H](O)[C@H](O)[C@H]3O)c(O)c2O)cc1O | 4.7 µM
24 | COc1ccc(-c2cc(=O)c3c(O)cc(O[C@@H]4O[C@H](CO[C@@H]5O[C@@H](C)[C@H](OC(C)=O)[C@@H](O)[C@H]5O)[C@@H](O)[C@H](O)[C@H]4O[C@@H]4O[C@H](COC(C)=O)[C@@H](O)[C@H](O)[C@H]4O)cc3o2)cc1 | > 100 µM
25 | COc1cc2oc(-c3ccccc3)cc(=O)c2c(O)c1OC [MOSLOFLAVONE] | 23.4 µM
26 | O=C1/C(=C/c2ccc(O)c(O)c2)Oc2cc(O)ccc21 [SULFURETIN] | 3.5 µM
27 | OC[C@H]1O[C@@H](OCc2ccccc2)[C@H](O)[C@@H](O)[C@@H]1O | > 100 µM
28 | CC(=O)/C=C/c1ccc(O)c(O[C@@H]2O[C@H](COC(=O)/C=C/c3ccc(O)c(O)c3)[C@@H](O)[C@H](O)[C@H]2O)c1 | 62.2 µM
29 | CC(C)=CCC/C(C)=C\CO[C@@H]1O[C@H](CO)[C@@H](O)[C@H](O)[C@H]1O | > 100 µM
30 | O=C(O)/C=C/c1ccc(O)cc1 [COUMARIC ACID] | 6.4 µM
31 | COc1c(O)c(OC)c2c(=O)cc(-c3ccccc3)oc2c1OC | 43.6 µM
32 | COc1ccc(-c2cc(=O)c3c(O)cc(O[C@@H]4O[C@H](CO[C@@H]5O[C@@H](C)[C@H](O)[C@@H](OC(C)=O)[C@H]5O)[C@@H](O)[C@H](O)[C@H]4O[C@@H]4O[C@H](COC(C)=O)[C@@H](O)[C@H](O)[C@H]4O)cc3o2)cc1 | > 100 µM
33 | O=Cc1ccc(O)cc1 [4-HYDROXYBENZALDEHYDE] | 33.2 µM
34 | O=C(O)/C=C/c1ccc(O)c(O)c1 [CAFFEIC ACID] | 77.1 µM
35 | CCOC(=O)/C=C/c1ccc(O)c(O)c1 [ETHYL CAFFEATE] | 1.9 µM
36 | COc1cc(/C=C/C(=O)NC[C@H](O)c2ccc(O)cc2)ccc1O | 32.3 µM
37 | O=C1/C=C/c2ccc(O)c(c2)O[C@@H]2O[C@H](COC(=O)/C=C/c3cc(O)c(O)cc3C1)[C@@H](O)[C@H](O)[C@H]2O | 8.3 µM
